Data on three compounds can be found in PMC10082216 (Nature Communications, 2023).

Data set [1] relates to mature stage V gametocytes (NF54 strain). Put plainly: microbe, parasite or virus in culture. In kind it is cell-based, Plasmodium falciparum. The following applies: for IC50 / IC90: Plasmodium falciparum; for IC90: NF54, read-out: Retention IC90; for Retention IC10: Fig. 3 dose-response. In a few lines:
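NF54 stage V gametocytes (day 17, density-purified, 0.5% hematocrit) exposed 24 h to compounds at 1.11 µM (primary) or in dose-response. Killing scored by MitoTracker staining; gametocytemia by Sybr Green/CellMask staining, with microsphiltration for stiffening. DMSO 0.05% negative control.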

A short description of data set [2]: Hit scoring on safety in human subjects and pharmacokinetics. The conditions noted are these: for Score (PK): peak plasma concentration vs IC50. The text has this: Hits from the ReFrame library were further selected based on safety, preferably oral administration (high score if oral), and potential availability for widespread use.
Setting [3] is: NF54, 24 h, read-out: Stiffening IC50 (retention).

Where two headings read alike, the source gives them in different places.

`COc1cc2c(cc1OC)[C@@H]1Cc3ccc(OC)c(OC)c3CN1CC2` [(S)-(-)-Tetrahydropalmatine]: the “Retention 1” value in data set [1] (Concentration 0.00457) amounted to 36.1518; in data set [1] (Concentration 0.01372) it was 42.4295; in data set [1] (Concentration 0.04115) it was 39.0679; in data set [1] (Concentration 0.12346), 52.9692; in data set [1] (Concentration 0.37037), 34.5737; in data set [1] (Concentration 1.11111), 41.4215. Further, the figures for the “Retention 1” value in data set [1] (Concentration 3.33333) and in data set [1] (Concentration 10) were 50.7426 and 49.3139, respectively. Moreover, the “Retention 2” value in data set [1] (Concentration 0.00457) was determined as 18.1904; in data set [1] (Concentration 0.01372), 17.9082; in data set [1] (Concentration 0.04115), 21.6203; in data set [1] (Concentration 0.12346) it was 17.6021; in data set [1] (Concentration 0.37037), 33.9194; in data set [1] (Concentration 1.11111) it was 25.646. Also, the entries for the “Retention 2” value in data set [1] (Concentration 3.33333) and in data set [1] (Concentration 10) were 20.0803 and 22.5855, respectively. Moreover, the IC50 in data set [1] (setting [3]) amounted to 1 nM. Also, in data set [1], the IC90 amounted to 6 nM. The “Score (safety)” value in data set [2] was 3. Moreover, in data set [2], the “Score (PK)” value was 6 (Peak plasma concentration higher than 3 IC50 (Score = 6)).
For the compound `CNC(=O)N1C[C@@H](C)N(c2ccc(C(=O)Nc3ccc(-c4ccc(-c5c[nH]c([C@@H]6CCCN6C(=O)[C@@H](NC(=O)OC)C(C)C)n5)cc4)c(OC(F)(F)F)c3)cn2)C[C@@H]1C` [TD-6450], in data set [1] (1.11 µM), the “outcome of primary screen (hit definition)” value was “met the hit definition”. For the same compound, the “Retention 1” value in data set [1] (Concentration 0.00457) was 6.791; in data set [1] (Concentration 0.01372), 30.2208; in data set [1] (Concentration 0.04115) it was 30.7002; in data set [1] (Concentration 0.12346), 45.793; in data set [1] (Concentration 0.37037), 16.5379; in data set [1] (Concentration 1.11111), 46.8849. Moreover, the “Retention 1” value in data set [1] (Concentration 3.33333) is 60.4317; in data set [1] (Concentration 10) it was 70.8882. For the same compound, the “Retention 2” value in data set [1] (Concentration 0.00457) was 14.2035; in data set [1] (Concentration 0.01372), 10.7025; in data set [1] (Concentration 0.04115) it was 37.9062; in data set [1] (Concentration 0.12346) it was 33.0106; in data set [1] (Concentration 0.37037), 35.496; in data set [1] (Concentration 1.11111), 58.9321. For the same compound, the “Retention 2” value worked out at 53.8901 in data set [1] (Concentration 3.33333) and 66.7706 in data set [1] (Concentration 10). Moreover, the “Retention IC10” value in data set [1] stood at 30 nM. The IC50 in data set [1] (setting [3]) was 550 nM; in data set [1] (NF54, read-out: IC50 during the screening campaign, all gametocytes stained), 455 ± 304 nM. In addition, the IC90 in data set [1] stood at 4500 nM. Moreover, the “differential retention rate versus DMSO upon primary screening” value in data set [1] (one well/compound, 1.11 µM) stood at 32%. In data set [2], the “Score (safety)” value is given as 3. In addition, in data set [2], the “Score (PK)” value was 3 (Peak plasma concentration between IC50 and 3 IC50 (Score = 3)).
Consider `C[C@H]1Cc2c([nH]c3cc(Cl)c(F)cc23)[C@@]2(N1)C(=O)Nc1ccc(Cl)cc12` [NITD609, cipargamin], for which the “Retention 1” value in data set [1] (Concentration 0.00457) amounted to 5.495; in data set [1] (Concentration 0.01372), 19.4986; in data set [1] (Concentration 0.04115) it was 24.1896; in data set [1] (Concentration 0.12346), 74.5556; in data set [1] (Concentration 0.37037), 100; in data set [1] (Concentration 1.11111), 100. Further, the “Retention 1” value in data set [1] (Concentration 3.33333) and in data set [1] (Concentration 10) was 100 in each case. Further, the “Retention 2” value worked out at 24.2833 in data set [1] (Concentration 0.00457); 27.3994 in data set [1] (Concentration 0.01372); 16.3872 in data set [1] (Concentration 0.04115); 59.61 in data set [1] (Concentration 0.12346); 100 in data set [1] (Concentration 0.37037); 94.1314 in data set [1] (Concentration 1.11111). The “Retention 2” value in data set [1] (Concentration 3.33333) and in data set [1] (Concentration 10) was 100 in each case. Also, the “Retention IC10” value in data set [1] turned out to be 60 nM. For the same compound, the IC50 in data set [1] (setting [3]) stood at 110 nM. In data set [1], the IC90 came to 160 nM. For the same compound, the “Score (safety)” value in data set [2] is on record as 3. Moreover, the “Score (PK)” value in data set [2] was 6 (Peak plasma concentration higher than 3 IC50 (Score = 6)).

Usually IC50 stands for the concentration needed to halve the response being measured. A word on the IC90: it is the concentration needed for an effect of 90%.
